The subject of data set [1] is Mtb H37Ra ITM-M006710 (ATCC 9431). In words: Microplate Alamar Blue Assay (MABA) microdilution, Mtb H37Ra. To be noted: for MIC: Mycobacterium tuberculosis. It counts as cell-based, Mycobacterium tuberculosis. (In general: Resazurin is reduced to fluorescent resorufin, in cell work by metabolically active cells.)
The subject of data set [2] is M. smegmatis DSM 43465 (ATCC 607). The experiment in a line: Microplate Alamar Blue Assay (MABA) microdilution, M. smegmatis. It counts as cell-based, Mycobacterium smegmatis.
The subject of data set [3] is Mycobacterium aurum DSM 43999 (ATCC 23366). In words: Microplate Alamar Blue Assay (MABA) microdilution, M. aurum. It counts as cell-based.
Data set [4] concerns HepG2 cell line. In words: HepG2 cytotoxicity, CellTiter 96 (MTS) assay. It counts as cell-based, human. As to conditions: 24 h incubation, CellTiter 96.
For data set [5], the system named is Staphylococcus epidermidis CCM 4418 (ATCC 12228). The experiment in a line: Antibacterial microdilution broth method, SE. As to conditions: 24 h, read-out: MIC SE. In kind it is cell-based.
Data set [6] has as its system Candida albicans CCM 8320 (ATCC 24433). In words: Antifungal microdilution broth method, CA. As to conditions: 24 h, read-out: MIC CA. It counts as cell-based.
Data set [7] relates to Candida krusei CCM 8271 (ATCC 6258). In words: Antifungal microdilution broth method, CK. It counts as cell-based. To be noted: Pichia kudriavzevii, 24 h, read-out: MIC CK. In general terms: Broth dilution looks for growth in wells or tubes with falling amounts of substance.
The test system of data set [8] is Candida parapsilosis CCM 8260 (ATCC 22019). The experiment in a line: Antifungal microdilution broth method, CP. It counts as cell-based. To be noted: Lodderomyces parapsilosis, 24 h, read-out: MIC CP.
In data set [9] the test system is Candida tropicalis CCM 8264 (ATCC 750). The experiment in a line: Antifungal microdilution broth method, CT. It counts as cell-based. To be noted: 24 h, read-out: MIC CT.
Data set [10] concerns Aspergillus fumigatus ATCC 204305. In words: Antifungal microdilution broth method, AF. In kind it is cell-based. To be noted: ATCC204305, 48 h, read-out: MIC AF.
The subject of data set [11] is Aspergillus flavus CCM 8363. The experiment in a line: Antifungal microdilution broth method, AFla. It counts as cell-based. As to conditions: CCM8363, read after 48 h (filamentous fungi), read-out: MIC AFla.
Data set [12] concerns Lichtheimia corymbifera CCM 8077. In words: Antifungal microdilution broth method, LC. It counts as cell-based. To be noted: CCM8077, 48 h, read-out: MIC LC.
For data set [13], the system named is Trichophyton interdigitale CCM 8377 (ATCC 9533). The experiment in a line: Antifungal microdilution broth method, TI. In kind it is cell-based. To be noted: 48 h, read-out: MIC TI.
The subject of another data set is some G- bacteria. The experiment in a line: Antibacterial microdilution broth method, strains not given. In kind it is cell-based. As to conditions: read-out: MIC against some G- bacteria.
Data set [14] deals with Klebsiella pneumoniae CCM 4415 (ATCC 10031). The experiment in a line: Antibacterial microdilution broth method, KP. To be noted: read after 24 h of incubation.
Data set [15] relates to HepG2 cell line. Details: method as in PMID 23357778. To be noted: converted to µM based on the literature value 1184.3 ± 120.2 µg/mL ref 62; cited from earlier work.
Setting [16] is: pH 6.6, read-out: MIC Mtb H37Ra.
The mark [17] stands for this setting: pH 6, calculated from µg/mL, read-out: MIC Mtb H37Ra.

Values after ≈ are worked out from the molar mass of the structure shown. Where two headings read alike, the source gives them in different places.

By IC50 is commonly meant the concentration that gives 50% inhibition. As for `CCOC(=O)[C@H](C)NC(=O)c1cnccn1` [PC-L-Ala-Et, ethyl (pyrazine-2-carbonyl)-L-alaninate], in [1] (Mtb H37Ra, pH 6, PC-L-Ala-Et vs PC-L-Ala), the “times lower MIC of the ethyl ester compared to the free acid” value is given as “at least 64 times”. Moreover, the MIC in [1] (pH 6) is 3.91 µg/mL; in [1] (pH 6, read-out: MIC Mtb H37Ra), 3.91 µg/mL; in data set [1] (setting [16]) it was not below 500 µg/mL; in data set [1] (pH 6, Table 4, read-out: Mtb pH 6 MIC) it was 18 µM; in data set [1] (setting [17]), 17.5 µM; in [2] (Mycolicibacterium smegmatis, pH 6, read-out: MIC M. smegmatis µg/mL) it was not below 125 µg/mL. Also, the MIC in [2] (Mycolicibacterium smegmatis, pH 6.6, read-out: MIC M. smegmatis) is not below 500 µg/mL; in data set [3] (Mycolicibacterium aurum, pH 6, read-out: MIC M. aurum µg/mL), not below 125 µg/mL; in [3] (Mycolicibacterium aurum, pH 6.6, read-out: MIC M. aurum) it was not below 500 µg/mL; in [5], 250 µM (≈ 55.8 µg/mL); in data set [6], more than 500 µM; in data set [7], more than 500 µM. The MIC was more than 500 µM in data set [8]; more than 500 µM in [9]; more than 500 µM in data set [10]; more than 500 µM in data set [11]; more than 500 µM in data set [12]; 500 µM (≈ 112 µg/mL) in data set [13]. Further, the MIC with some G- bacteria was 125 µM (≈ 27.9 µg/mL). Also, the “HepG2 IC50” value in the data set on HepG2 cell line [4] is reported as “above the tested range”. The IC50 with HepG2 cell line [4] (Homo sapiens, HepG2, read-out: HepG2 IC50) was more than 1 mM. Further, the “MIC KP” value in [14] is listed as more than 500 µM.
For `NC(=O)c1cnccn1` [PZA, pyrazinamide, reference compound], the MIC in data set [1] (pH 6, read-out: Mtb pH 6 MIC) was 31.8 µM; in data set [1] (pH 6, read-out: MIC Mtb H37Ra), less than 3.91 µg/mL; in data set [1] (setting [16]) it was not below 500 µg/mL; in data set [1] (setting [17]), less than 31.8 µM; in data set [2] (Mycolicibacterium smegmatis, pH 6; read-out: MIC M. smegmatis), not below 500 µg/mL; in data set [2] (Mycolicibacterium smegmatis, pH 6.6; read-out: MIC M. smegmatis) it was not below 500 µg/mL. Further, the MIC in [3] (Mycolicibacterium aurum, pH 6; read-out: MIC M. aurum) is 250 µg/mL (≈ 2030 µM); in data set [3] (Mycolicibacterium aurum, pH 6.6; read-out: MIC M. aurum) it was not below 500 µg/mL. For the same molecule, the IC50 in the data set on HepG2 cell line [15] is 9620 µM.

Values taken from paper PMC7181131, “N-Pyrazinoyl Substituted Amino Acids as Potential Antimycobacterial Agents—the Synthesis and Biological Evaluation of Enantiomers” (Molecules, 2020).
